# Like-named read-outs stand apart in the source and are kept apart here. Ends that are not written are not given here.
# T1: human arginase II (hargII) (Homo sapiens, UniProt P78540)
# T1 construct: The human arginase II (aa23-354, 38.3kD) fused to a His6-tag at the N-terminal; purchased USBiological Life Science, Salem, USA
# T1 sequence (P78540 23-354): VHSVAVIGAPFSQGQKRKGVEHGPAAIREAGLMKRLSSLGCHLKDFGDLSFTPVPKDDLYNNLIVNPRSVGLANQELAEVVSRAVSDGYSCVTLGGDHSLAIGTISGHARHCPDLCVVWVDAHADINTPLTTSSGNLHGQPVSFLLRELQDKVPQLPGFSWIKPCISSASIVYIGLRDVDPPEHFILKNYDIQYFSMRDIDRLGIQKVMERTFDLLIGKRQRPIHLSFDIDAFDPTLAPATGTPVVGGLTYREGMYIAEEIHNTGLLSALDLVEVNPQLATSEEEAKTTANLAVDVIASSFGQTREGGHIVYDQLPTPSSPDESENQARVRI
# T2: human arginase I (hargI) (Homo sapiens, UniProt P05089)
# T2 construct: TEV protease site and linker (N); made in house; host or cells: E. coli BL21 (DE3) RIL
# T2 sequence (P05089 with tags, fused parts or gaps): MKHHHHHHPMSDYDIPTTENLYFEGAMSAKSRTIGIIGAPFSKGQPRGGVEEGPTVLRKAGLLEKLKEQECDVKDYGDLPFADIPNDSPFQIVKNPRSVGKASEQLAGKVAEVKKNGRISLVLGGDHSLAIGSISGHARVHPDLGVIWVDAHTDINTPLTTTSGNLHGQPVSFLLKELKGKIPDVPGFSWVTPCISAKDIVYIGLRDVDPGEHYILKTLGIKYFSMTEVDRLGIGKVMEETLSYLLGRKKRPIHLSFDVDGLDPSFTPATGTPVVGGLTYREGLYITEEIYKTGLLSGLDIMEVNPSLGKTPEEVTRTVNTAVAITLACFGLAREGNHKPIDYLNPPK
# T3: human arginase I (wild-type hargI, His6-tagged) (Homo sapiens, UniProt P05089)
# T3 construct: TEV protease site and linker (N); made in house; host or cells: E. coli BL21 (DE3) RIL
# T3 sequence (P05089 with tags, fused parts or gaps): T2 sequence (P05089 with tags, fused parts or gaps)
# T4: human arginase II (aa23-354, 38.3kD) (human, UniProt P78540 23-354, RED-tris-NTA dye labeled in the MST assay)
# T4 construct: human arginase II, aa23-354, 38.3kD, fused to a His6-tag at the N-terminal; also called hargII; source: bought: USBiological Life Science, Salem, USA; not shown: His6, N-terminal, kept
# T4 sequence (looked up): T1 sequence (P78540 23-354)
# T5: human arginase I (human, UniProt P05089 1-322, RED-tris-NTA dye on the His6-tag (Monolith His-Tag Labeling Kit RED-tris-NTA) in the MST assay)
# T5 construct: human arginase I, full-length gene amplified from a commercial template plasmid (dnasu.org), cloned in pETM11; His6-tag and TEV protease site at the N-terminus; A TEV protease site lies between the His6-tag and the protein; no cleavage is described; also called hargI; hArg1; source: E. coli BL21 (DE3) RIL, purified (Ni-NTA, SEC); not shown: His6, N-terminal, kept
# T5 sequence (looked up): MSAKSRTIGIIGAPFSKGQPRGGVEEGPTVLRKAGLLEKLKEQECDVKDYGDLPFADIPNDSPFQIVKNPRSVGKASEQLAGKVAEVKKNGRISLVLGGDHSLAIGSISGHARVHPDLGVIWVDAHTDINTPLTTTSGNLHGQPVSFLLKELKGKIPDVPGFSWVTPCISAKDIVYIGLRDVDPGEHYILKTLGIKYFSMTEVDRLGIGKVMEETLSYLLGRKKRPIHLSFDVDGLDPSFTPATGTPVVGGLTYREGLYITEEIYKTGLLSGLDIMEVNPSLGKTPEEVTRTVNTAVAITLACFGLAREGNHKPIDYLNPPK
# B1: synthetic peptide REGNH (peptide)
# peptide: REGNH
# notes: residues 308-312 of human arginase I, part of the S-shape motif of the C-terminal; Nothing is said of modified ends; also called peptide analogue; REGNH C-terminus analogue peptide; source: synthetic peptide; bought: Biomatik and TopPeptides, Shanghai
# Columns and labels:
# [1] = target: T1, human arginase II (hargII); assay: Enzymatic assay, L-arginine hydrolysis by hargII, colorimetric urea; format: biochemical; settings: called preliminary data, read-out: IC50 (abstract)
# Protocol: The human arginase II (aa23-354, 38.3kD) fused to a His6-tag at the N-terminal was purchased and supplied as a liquid aliquot (20 mM Tris-HCl, pH 8.0, 10% (v/v) glycerol) at −20 °C (USBiological Life Science, Salem, USA). This stock was thaw on ice, followed by high speed centrifuging before diluting to certain concentration for activity assay.
# (§1) The kinetic properties of hargI and II were tested according to previously reported methods with minor modifications. The Arginases activity was assessed by colorimetric measurement of produced urea. The assays were performed in 96-well plates (Greiner) using Assay buffer [100 mM Na-phosphate pH 7.4, 130 mM NaCl]. Final volume of each reaction was 60 μl, the final concentration of hargI and hargII was 50 nM in each well. Samples containing no hargI or hargII were used as negative control. The peptide inhibitor was added based on experiment setting, dose ranging from 20 mM to 9.8 μM. Each sample was pre-incubated for 30 min in a 37 °C shaking incubator (100 rpm) and the reactions were started by adding concentrated substrate buffer [Assay buffer supplemented with 100 mM L-arginine, 500 mM Glycine and 1.25 mM MnCl2]. […] The color turns to brown and changes in optical density (OD) at 466 nm reflecting the production of urea were quantified using the Synergy H1 Hybrid Reader (BioTek).
# human arginase I (hargI) [2] = target: T2, human arginase I (hargI); assay: Enzymatic assay, L-arginine hydrolysis by hargI, colorimetric urea; format: biochemical; settings: called preliminary data, read-out: IC50 (abstract)
# Protocol: as §1, with “MnCl2]. Reactions were performed in a shaking incubator at 37 °C and quenched after 1 h using a Stop mix. The Stop mix consisted of two volumes of freshly prepared solution A [Antipyrine/ H2SO4 reagent: 5 g/L of antipyrine(1,5-dimethyl-2-phenyl-3-pyrazolone) in 50%(v/v) sulfuric acid] and one volume solution B [Oxime reagent: 0.8 g 2,3-Butanedione monoxime in 100 ml of 5%(v/v) acetic acid].” for “MnCl2].”
# human arginase I (hargI) [3] = target: T2, human arginase I (hargI); assay: Kinetic assay of L-arginine metabolism in absence/presence of peptide; format: biochemical; settings: 1 mM peptide REGNH, 40 mM L-arginine
# Protocol: as §1, with “MnCl2]. Reactions were performed in a shaking incubator at 37 °C and quenched after 1 h using a Stop mix. The Stop mix consisted of two volumes of freshly prepared solution A [Antipyrine/ H2SO4 reagent: 5 g/L of antipyrine(1,5-dimethyl-2-phenyl-3-pyrazolone) in 50%(v/v) sulfuric acid] and one volume solution B [Oxime reagent: 0.8 g 2,3-Butanedione monoxime in 100 ml of 5%(v/v) acetic acid].” for “MnCl2].”, “(BioTek). […]” for “(BioTek).”
# [4] = system: wild-type and truncated (terminating at Arg308 or Ala308) arginase I; settings: wild-type and truncated species terminating at Arg308 or Ala308, even at higher concentrations; ref [17]; cited from earlier work
# Text: (§2) A promising avenue in arginase inhibitors research is a structural feature that shared by all mammalian arginases – the S-shaped motif at the C-terminal. The functional significance of this motif is that it accounts for 54% of intersubunit contacts. In Human Arginase I (hargI) the S-shaped motif is comprised by residues 304–322, where Arg308 is thought to play the major role, as it forms a salt bridge with Glu262. In rat liver arginase I, Arg308 also forms an intermonomer salt bridge with Asp204 from an adjacent subunit. The importance of Arg308 is supported by the di ...
# [5] = system: Arg308Ala mutant of human arginase I; settings: low concentrations of guanidinium chloride, ref [17], cited from earlier work
# Text: as §2, with “... || The aim of the described research is to examine the effect of the peptide analogue REGNH (residue 308–312), which comprises part of the S-shape motif from the C-terminal (residue 308–322) on hargI. A previous study has shown that the C terminal tail plays a critical role in retaining trimeric protein assembly, as well as in the cooperative response of arginase in L-arginine metabolism.” for “...”
# [6] = target: T3, human arginase I (wild-type hargI, His6-tagged); assay: MST binding assay, hargI
# Protocol: Microscale thermophoresis (MST)
# MST measurements were performed on a Monolith NT.115 instrument (Nanotemper Technologies, GmbH). Purified His6-tagged hargI sample was labeled with the Monolith His-Tag Labeling Kit RED-tris-NTA (MO-L008) according to the protocol (Nanotemper Technologies, GmbH). All measurements were performed in triplicate in MST buffer (25 mM Tris-HCl pH 7.5, 125 mM NaCl, 1% Glycerol and 1 mM BME, 0.05% Tween-20) using standard capillaries (K002, Nanotemper Technologies, GmbH). Labeled hargI was used at a final concentration of 50 nM according to the manufacturer’s recommendations. All measurements were performed at 60% LED excitation power and 40% MST power, Laser-On time was 30 s, Laser-Off time 5 s. The peptide REGNH was titrated in 1:1 dilution starting at 2.82 μM. All binding reactions were incubated for 10 min at room temperature followed by centrifugation at 20,000 g before loading into the capillaries.
# The ability of the synthetic peptide analogue (REGNH) to bind to wild-type hargI and II was examined using Microscale Thermophoresis (MST) (Nanotemper, GmbH). […] After 10 min incubation at room temperature the dose-response MST curve was measured, which yielded a clear binding curve with determined dissociation constant of 177 ± 50 μM for hargI, and 196 ± 25 μM for hargII (Fig. 2).
# human arginase I (hargI) [7] = target: T2, human arginase I (hargI); assay: Dose-response of ABH on hargI in presence/absence of REGNH, L-arginine metabolism; format: biochemical
# Protocol: The Arginases activity was assessed by colorimetric measurement of produced urea. The assays were performed in 96-well plates (Greiner) using Assay buffer [100 mM Na-phosphate pH 7.4, 130 mM NaCl]. Final volume of each reaction was 60 μl, the final concentration of hargI and hargII was 50 nM in each well. Samples containing no hargI or hargII were used as negative control. The peptide inhibitor was added based on experiment setting, dose ranging from 20 mM to 9.8 μM. Each sample was pre-incubated for 30 min in a 37 °C shaking incubator (100 rpm) and the reactions were started by adding concentrated substrate buffer [Assay buffer supplemented with 100 mM L-arginine, 500 mM Glycine and 1.25 mM MnCl2]. Reactions were performed in a shaking incubator at 37 °C and quenched after 1 h using a Stop mix. The Stop mix consisted of two volumes of freshly prepared solution A [Antipyrine/ H2SO4 reagent: 5 g/L of antipyrine(1,5-dimethyl-2-phenyl-3-pyrazolone) in 50%(v/v) sulfuric acid] and one volume solution B [Oxime reagent: 0.8 g 2,3-Butanedione monoxime in 100 ml of 5%(v/v) acetic acid]. […] The color turns to brown and changes in optical density (OD) at 466 nm reflecting the production of urea were quantified using the Synergy H1 Hybrid Reader (BioTek).
# [8] = target: T4, human arginase II (aa23-354, 38.3kD); assay: MST; Monolith NT.115; His6-tagged arginase labeled with RED-tris-NTA at 50 nM, peptide REGNH titrated in 1:1 dilution; 25 mM Tris-HCl pH 7.5, 125 mM NaCl, 1% glycerol, 1 mM BME, 0.05% Tween-20; 10 min incubation at room temperature; triplicate; settings: both partners purified
# human arginase I [9] = target: T5, human arginase I; assay: as above; settings: both partners purified
# [10] = target: T4, human arginase II (aa23-354, 38.3kD); assay: cell-based or functional assay
# human arginase I [11] = target: T5, human arginase I; assay: cell-based or functional assay
molecule,measurement,setting,value
REGNH [REGNH],IC50,[1],1800 ± 100 µM
same,IC50,human arginase I (hargI) [2],2400 ± 300 µM
same,lowering of activity with respect to apo-enzyme,human arginase I (hargI) [3],≈ 15%
Cl.N=C(N)N [guanidinium chloride],response of wild-type and truncated species to Gdn+,[4],not responsive
same,activity of Arg308Ala mutant with Gdn+,[5],significantly increased activity
same,trimeric assembly and substrate cooperativity of Arg308Ala mutant with Gdn+,[5],restored the trimeric assembly and substrate cooperativity
same,activity of Arg308Ala mutant with Gdn+,[5]; listed as Gdn^+,significantly increased
"N[C@@H](CCCCB(O)O)C(=O)O [ABH, 2-(S)-amino-6-boronohexanoic acid]",Kd,"[6]; MST, ABH to hargI, MST buffer pH 7.5",~0.6 µM
same,binding to hargI,[6]; dose-dependent MST assay,strong binding
same,IC50,"human arginase I (hargI) [7]; ABH on hargI, printed in parentheses after 'those of the apo-enzyme', the comparison is with hargI + 1 mM REGNH",1 ± 0.03 µM
same,inhibition of hargI by ABH in presence of REGNH compared with apo-enzyme,human arginase I (hargI) [7]; hargI supplemented with 1 mM peptide REGNH,comparable inhibition constants to those of the apo-enzyme
B1,Kd,[8],196 ± 25 µM
same,Kd,human arginase I [9],177 ± 50 µM
same,"inhibition of hargII enzymatic activity (colorimetric measurement of urea from L-arginine), peptide 9.8 μM to 20 mM; IC50",[10],1800 µM
same,"inhibition of hargI enzymatic activity (colorimetric measurement of urea from L-arginine), peptide 9.8 μM to 20 mM; IC50",human arginase I [11],2400 µM
